Test results as given in patent publication US20100273772A1, “Bisaryl Alkynylamides as Negative Allosteric Modulators of Metabotropic Glutamate Receptor 5 (MGLUR5)” (Wyeth LLC, priority 2009, published 2010).

Experiments:
[1] = molecular target: T1, metabotropic glutamate receptor 5 (Rattus norvegicus, UniProt P31424); assay: FLIPR Calcium 3 fluorescence-based functional assay of intracellular calcium, mGluR5 antagonist activity; type: cell-based; settings: inhibition of glutamate (EC90, ~50 uM) stimulated calcium levels, mGluR5 HEK-293 cells; read-out: mGluR5 FLIPR MP Antagonist DR IC50
T1 construct: expressed in transfected cells; host or cells: HEK-293
T1 sequence (P31424 21-1203): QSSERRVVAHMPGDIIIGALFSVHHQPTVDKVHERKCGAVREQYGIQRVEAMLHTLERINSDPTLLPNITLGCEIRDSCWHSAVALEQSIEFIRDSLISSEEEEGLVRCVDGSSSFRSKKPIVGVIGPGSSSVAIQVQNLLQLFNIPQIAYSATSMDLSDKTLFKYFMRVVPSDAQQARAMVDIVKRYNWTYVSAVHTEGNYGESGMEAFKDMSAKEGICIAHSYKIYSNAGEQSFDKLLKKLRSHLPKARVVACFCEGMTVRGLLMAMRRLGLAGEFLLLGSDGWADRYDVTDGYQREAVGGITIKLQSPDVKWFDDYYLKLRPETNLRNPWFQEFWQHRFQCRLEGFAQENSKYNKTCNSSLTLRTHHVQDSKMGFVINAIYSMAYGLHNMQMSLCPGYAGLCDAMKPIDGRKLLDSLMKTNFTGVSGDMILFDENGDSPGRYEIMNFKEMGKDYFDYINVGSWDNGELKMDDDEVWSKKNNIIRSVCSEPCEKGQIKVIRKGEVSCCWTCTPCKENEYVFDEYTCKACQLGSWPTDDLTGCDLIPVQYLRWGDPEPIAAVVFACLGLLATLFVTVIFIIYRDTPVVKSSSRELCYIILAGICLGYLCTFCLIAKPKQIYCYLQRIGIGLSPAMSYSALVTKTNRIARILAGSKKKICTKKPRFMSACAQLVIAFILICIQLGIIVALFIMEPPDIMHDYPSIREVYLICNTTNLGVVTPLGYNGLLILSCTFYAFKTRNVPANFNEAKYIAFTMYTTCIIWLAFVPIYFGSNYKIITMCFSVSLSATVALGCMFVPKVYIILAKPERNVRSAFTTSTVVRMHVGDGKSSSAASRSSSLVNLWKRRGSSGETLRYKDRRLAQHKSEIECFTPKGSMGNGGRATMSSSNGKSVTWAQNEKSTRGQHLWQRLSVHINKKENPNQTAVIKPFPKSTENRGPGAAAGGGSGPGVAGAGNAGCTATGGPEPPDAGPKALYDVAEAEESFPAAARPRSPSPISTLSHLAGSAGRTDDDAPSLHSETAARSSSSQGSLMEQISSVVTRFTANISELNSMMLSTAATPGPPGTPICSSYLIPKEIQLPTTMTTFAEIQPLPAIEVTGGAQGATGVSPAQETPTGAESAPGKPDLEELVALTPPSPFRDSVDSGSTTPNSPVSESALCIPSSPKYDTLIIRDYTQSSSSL
Excerpt: (§1) where [L]=concentration of free radioligand and Kd=dissociation constant of radioligand for the receptor. TITLE: Identification of metabotropic glutamate receptor 5 antagonists using a stable, sensitive fluorescence-based screening system PURPOSE: The aim of the research presented here was to develop a robust functional assay to measure changes in intracellular calcium, with the goal of identifying potent mGluR5 antagonists.
The FLIPR Calcium 3 Assay Kit is designed to work with many cell types, both adherent and non-adherent. Optimal cell conditions for the FLIPR Calcium 3 Assay Kit require the creation of a confluent cell monolayer before placing the plates in FLIPR or FlexStation. In general, we start with 50,000 mGluR5 HEK-293 cells/well for a 96-well plate. For adherent cells, seeding cells overnight with a plating volume of 100 μL/well worked for 96-well plates.
Remove cell plates from the incubator. Remove the supernatant medium. Add 180 ul of Loading Buffer to each well (for 96-well plates). HBSS buffer component B) pipette 100 mL of 10× Hank's Balanced Salt Solution and 20 mL of 1M Hepes buffer
Incubate cell plates for 1 hour at 37° C. and then keep the plates at room temperature until used.
After incubation, transfer the plates directly to FLIPR and begin the calcium assay as described in the FLIPR system manual. For a signal test, a starting average count of ˜10,000 is recommended. Recommended experimental setup parameters are as follows. Faster addition speeds can lead to better mixing of compounds and lower signal variance across the plate.
Test or reference compound is added to the 96-well plate (manually). […] Relative Fluorescence Units (RFUs) are recorded over a given time period (stated above) depending on the platform system used.
For antagonists, results are expressed as % inhibition of glutamate stimulated Calcium levels. IC50 values were calculated by Prism GraphPad using a 4-parameter logistic equation. IC50 values are calculated using GraphPad by fitting to a 1 site-model.

rat mGluR5 receptor = molecular target: T2, rat mGluR5 receptor (Rattus norvegicus, UniProt P31424); assay: [3H]-MPEP binding HEK-293 cell membranes expressing a rat mGluR5 receptor; settings: displacement of 4 nM [3H]-MPEP, HEK-293 cell membranes expressing rat mGluR5, 60 minute at room temperature; read-out: mGluR5 Ligand Binding DR Ki
T2 construct: expressed in transfected cells; host or cells: HEK-293
T2 sequence (P31424 21-1203): as above
Procedure: TITLE: [^3H]-MPEP binding HEK-293 cell membranes expressing a rat mGluR5 receptor. PURPOSE: To identify high affinity compounds at the rat mGluR5 receptor based on their ability to displace the mGluR5 negative allosteric modulator, MPEP.
mGluR5 expressing HEK-293 cells are scraped off the plate, transferred to centrifuge tubes, and washed twice by centrifugation (2000 rpm for 10 min., 4° C.) in buffer (50 mM Tris pH 7.5). The resulting pellets are aliquoted and placed at −80° C. On the day of assay, the cells are thawed on ice, and resuspended in buffer. The binding assay is performed in a 96 well microtiter plate in a total volume of 250 μL. Non-specific binding is determined in the presence of 10 μM MPEP. Binding reaction includes a final radioligand [^3H]-MPEP concentration of 4 nM and 12-25 ug membrane protein per well. Following a 60 minute incubation at room temperature, the reaction is terminated by the addition of ice cold buffer and rapid filtration through a GF/B filter presoaked for 30 minutes in 0.5% PEI. Compounds are initially tested in a single point assay to determine percent inhibition at 10 μM. Subsequently, Ki values are determined for compounds defined to be active.
% inhibition and Ki values generated by GraphPad Prism and Excel Fit. IC50 values are calculated using GraphPad by fitting to a 1 or 2 site-binding model. Ki values are calculated from the apparent IC50 values using the Cheng-Prussof equation:
as §1

Row | Molecule | IC50 [1] | Ki (rat mGluR5 receptor)
1 | 2-[4-methoxy-3-(pyridin-2-ylethynyl)benzoyl]-7-(trifluoromethyl)-1,2,3,4-tetrahydroisoquinoline [Example 16] | 125 nM | 1 nM
2 | 7-fluoro-2-[4-methoxy-3-(pyridin-2-ylethynyl)benzoyl]-1,2,3,4-tetrahydroisoquinoline [Example 9] | 23 nM | 3 nM
3 | COc1ccc(C(=O)N2Cc3ccccc3C2)cc1C#Cc1ccccn1 [Example 1, 2-[4-Methoxy-3-(pyridin-2-ylethynyl)benzoyl]isoindoline] | 10 nM | 4 nM
4 | COc1ccc(C(=O)N2CCc3ccccc3C2)cc1C#Cc1ccccn1 [Example 2, 2-[4-methoxy-3-(pyridin-2-ylethynyl)benzoyl]-1,2,3,4-tetrahydroisoquinoline] | 24 nM | 3 nM
5 | COc1ccc(C(=O)N2CCc3c(F)cccc3C2)cc1C#Cc1ccccn1 [Example 3, 5-fluoro-2-[4-methoxy-3-(pyridin-2-ylethynyl)benzoyl]-1,2,3,4-tetrahydroisoquinoline] | 44 nM | 2 nM
6 | COc1ccc(C(=O)N2CCc3c(cccc3C(F)(F)F)C2)cc1C#Cc1ccccn1 [Example 4, 2-[4-methoxy-3-(pyridin-2-ylethynyl)benzoyl]-5-(trifluoromethyl)-1,2,3,4-tetrahydroisoquinoline] | 134 nM | 0.4 nM
7 | COc1ccc(C(=O)N2CCc3cccc(C(F)(F)F)c3C2)cc1C#Cc1ccccn1 [Example 5, 2-[4-methoxy-3-(pyridin-2-ylethynyl)benzoyl]-8-(trifluoromethyl)-1,2,3,4-tetrahydroisoquinoline] | 151 nM | 2 nM
8 | COc1ccc(C(=O)N2CCc3c(F)ccc(F)c3C2)cc1C#Cc1ccccn1 [Example 6, 5,8-difluoro-2-[4-methoxy-3-(pyridin-2-ylethynyl)benzoyl]-1,2,3,4-tetrahydroisoquinoline] | 52 nM | 2 nM
9 | COc1ccc(C(=O)N2CCc3c(Cl)cc(Cl)cc3C2)cc1C#Cc1ccccn1 [Example 7, 5,7-dichloro-2-[4-methoxy-3-(pyridin-2-ylethynyl)benzoyl]-1,2,3,4-tetrahydroisoquinoline] | 176 nM | 
10 | COc1ccc(C(=O)N2CCc3ccc(Cl)cc3C2)cc1C#Cc1ccccn1 [Example 8, 7-chloro-2-[4-methoxy-3-(pyridin-2-ylethynyl)benzoyl]-1,2,3,4-tetrahydroisoquinoline] | 16 nM | 1 nM
11 | COc1ccc(C(=O)N2CCc3c(Cl)cccc3C2)cc1C#Cc1ccccn1 [Example 10, 5-chloro-2-[4-methoxy-3-(pyridin-2-ylethynyl)benzoyl]-1,2,3,4-tetrahydroisoquinoline] | 50 nM | 1 nM
12 | COc1ccc(C(=O)N2CCc3ccc(C#N)cc3C2)cc1C#Cc1ccccn1 [Example 11, 2-[4-methoxy-3-(pyridin-2-ylethynyl)benzoyl]-1,2,3,4-tetrahydroisoquinoline-7-carbonitrile] | 130 nM | 11 nM
13 | COc1ccc(C(=O)N2CCc3[nH]c4ccccc4c3C2)cc1C#Cc1ccccn1 [Example 12, 2-[4-methoxy-3-(pyridin-2-ylethynyl)benzoyl]-2,3,4,5-tetrahydro-1H-pyrido[4,3-b]indole] | > 1000 nM | 8 nM
14 | COc1ccc(C(=O)N2CCc3sccc3C2)cc1C#Cc1ccccn1 [Example 13, 5-[4-methoxy-3-(pyridin-2-ylethynyl)benzoyl]-4,5,6,7-tetrahydrothieno[3,2-c]pyridine] | 44 nM | 5 nM
15 | COc1ccc(C(=O)N2CCc3ncc(Br)cc3C2)cc1C#Cc1ccccn1 [Example 14, 3-bromo-6-[4-methoxy-3-(pyridin-2-ylethynyl)benzoyl]-5,6,7,8-tetrahydro-1,6-naphthyridine] | 51 nM | 8 nM
16 | COc1ccc(C(=O)N2CCc3nc[nH]c(=O)c3C2)cc1C#Cc1ccccn1 [Example 15, 6-[4-methoxy-3-(pyridin-2-ylethynyl)benzoyl]-5,6,7,8-tetrahydropyrido[4,3-d]pyrimidin-4(3H)-one] |  | 96 nM
17 | COc1ccc(C(=O)N2Cc3ccccc3C2CC(C)(C)O)cc1C#Cc1ccccn1 (stereo not drawn) [Example 17, 1-{2-[4-methoxy-3-(pyridin-2-ylethynyl)benzoyl]-2,3-dihydro-1H-isoindol-1-yl}-2-methylpropan-2-ol] |  | 612 nM
18 | COc1ccc(C(=O)N2C3CCC2c2ccccc23)cc1C#Cc1ccccn1 [Example 18, 9-[4-methoxy-3-(pyridin-2-ylethynyl)benzoyl]-1,2,3,4-tetrahydro-1,4-epiminonaphthalene] |  | 1120 nM
19 | COc1ccc(C(=O)N2CCc3c(OC)ccc(OC)c3C2)cc1C#Cc1ccccn1 [Example 19, 5,8-dimethoxy-2-[4-methoxy-3-(pyridin-2-ylethynyl)benzoyl]-1,2,3,4-tetrahydroisoquinoline] | 30 nM | 6 nM
20 | COc1ccc(C(=O)N2CCc3cc(OC)c(OC)cc3C2)cc1C#Cc1ccccn1 [Example 20, 6,7-dimethoxy-2-[4-methoxy-3-(pyridin-2-ylethynyl)benzoyl]-1,2,3,4-tetrahydroisoquinoline] | 49 nM | 36 nM
21 | COc1ccc(C(=O)N2CCc3cccc(C4CCN(S(C)(=O)=O)CC4)c3C2)cc1C#Cc1ccccn1 [Example 23, 2-[4-methoxy-3-(pyridin-2-ylethynyl)benzoyl]-8-[1-(methylsulfonyl)piperidin-4-yl]-1,2,3,4-tetrahydroisoquinoline] |  | > 10000 nM
22 | COc1ccc(C(=O)N2Cc3ccccc3C(Oc3ccc(C(F)(F)F)cc3)C2)cc1C#Cc1ccccn1 (stereo not drawn) [Example 24, 2-[4-methoxy-3-(pyridin-2-ylethynyl)benzoyl]-4-[4-(trifluoromethyl)phenoxy]-1,2,3,4-tetrahydroisoquinoline] |  | 520 nM
23 | COc1ccc(C(=O)N2CCc3ccccc3[C@H]2[C@@H]2CCCO2)cc1C#Cc1ccccn1 [Example 28, (1S)-2-[4-methoxy-3-(pyridin-2-ylethynyl)benzoyl]-1-[(2S)-tetrahydrofuran-2-yl]-1,2,3,4-tetrahydroisoquinoline] |  | 178 nM
24 | COc1ccc(C(=O)N2CCc3ccccc3C2Cc2ccccc2)cc1C#Cc1ccccn1 (stereo not drawn) [Example 30, 1-benzyl-2-[4-methoxy-3-(pyridin-2-ylethynyl)benzoyl]-1,2,3,4-tetrahydroisoquinoline] |  | 327 nM
25 | COc1ccc(C(=O)N2CCn3c(nnc3C(F)(F)F)C2)cc1C#Cc1ccccn1 [Example 49, 7-{[4-methoxy-3-(pyridin-2-ylethynyl)phenyl]carbonyl}-3-(trifluoromethyl)-5,6,7,8-tetrahydro[1,2,4]triazolo[4,3-a]pyrazine] |  | 269 nM
26 | COc1ccc(C(=O)N2CCNc3ccccc3C2)cc1C#Cc1ccccn1 [Example 56, 4-{[4-methoxy-3-(pyridin-2-ylethynyl)phenyl]carbonyl}-2,3,4,5-tetrahydro-1H-1,4-benzodiazepine] |  | 112 nM
27 | O=C(c1ccc(OCC2CC2)c(C#Cc2ccccn2)c1)N1Cc2ccccc2C1 [Example 80, 2-{[4-(Cyclopropylmethoxy)-3-(pyridin-2-ylethynyl)phenyl]carbonyl}-2,3-dihydro-1H-isoindole] |  | 189 nM
28 | O=C(c1ccc(C(F)(F)F)c(C#Cc2ccccn2)c1)N1CCc2cccnc2C1 [Example 99, 7-{[3-(Pyridin-2-ylethynyl)-4-(trifluoromethyl)phenyl]carbonyl}-5,6,7,8-tetrahydro-1,7-naphthyridine] |  | 34 nM
29 | O=C(c1ccc(C(F)(F)F)c(C#Cc2ccccn2)c1)N1Cc2ccncc2C1 [Example 102, 2-{[3-(Pyridin-2-ylethynyl)-4-(trifluoromethyl)phenyl]carbonyl}-2,3-dihydro-1H-pyrrolo[3,4-c]pyridine] |  | 120 nM
